According to patent US8691225B2, “Antibodies against the ectodomain of ErbB3 and uses thereof” (Merrimack Pharmaceuticals, Inc., priority 2007, dated 2014):
Residue numbers refer to the chain shown, from its start. Read-outs that look alike come from different tables or passages of the source.

Key:
[1] = system: ErbB3 phosphorylation in AdrR cells; assay: inhibitor dose response of ligand-induced ErbB3 phosphorylation (ELISA); format: cell-based, human; conditions: for IC50: Homo sapiens, 10 min
Experimental: Phosphorylation of ErbB3 is measured by ELISA (R&D Systems, DYC1769-5, per manufacturers protocol) and IC50 values are determined using Prism (GraphPad Software Inc.).

[2] = system: ACHN (a renal tumor cell line) xenograft tumors; assay: ACHN xenograft combination therapy; format: in vivo, mouse; conditions: Ab #6 300 μg IP every three days; erlotinib 25 mg/kg orally once daily
Experimental: In a first experiment, mice bearing ACHN (a renal tumor cell line) xenograft tumors are prepared by establishing tumors subcutaneously in the flanks of nude mice (Charles River Laboratories).

[3] = system: A549 subcutaneous xenograft tumors; assay: KRAS mutant A549 subcutaneous xenograft tumors; format: in vivo, mouse; conditions: Ab #6 300 μg every three days; erlotinib 25 mg/kg every day; taxol 20 mg/kg every 7 days
[4] = system: SKOV3 subcutaneous xenograft tumors; assay: PI3K mutant SKOV3 subcutaneous xenograft tumors; format: in vivo, mouse; conditions: Ab #6 300 μg every three days; cisplatin 1.5 mg/kg; dosing after 30 day lag phase
Source text: SKOV3 (SKOV-3) is an ovarian cancer cell line that comprises a mutation that upregulates PI3K expression.

[5] = system: DU145 (a prostate tumor cell line) xenograft tumors; assay: DU145 xenograft combination therapy; format: in vivo, mouse; conditions: Ab #6 300 μg IP every three days; taxol 20 mg/kg IP once per week
Experimental: In a second experiment, mice bearing DU145 (a prostate tumor cell line) xenograft tumors are prepared by establishing tumors subcutaneously in the flanks of nude mice (Charles River Laboratories). […] Again, tumor size is measured twice a week and measurements are used to calculate tumor volume.

[6] = target: T1, heregulin binding to ErbB3 on MALME-3M cells (Homo sapiens, UniProt P21860); assay: biotinylated heregulin binding to MALME3M cells by FACS; format: cell-based; conditions: 5 μM antibody, 20 nM heregulin EGF
T1 construct: ErbB3 expressed on MALME-3M melanoma cells; host or cells: MALME-3M melanoma cells
Experimental: After 30 minutes, 50 μl of 40 nM biotinylated heregulin EGF is added to the cells and incubated for another 10 minutes on ice. This yields a final concentration of 5 μM antibody and 20 nM heregulin EGF. Cells are then washed twice with 500 μl BD stain buffer and incubated with 100 μl of a 1:200 dilution of streptavidin-PE (PE=phycoerythrin) (Invitrogen) in BD stain buffer for 45 minutes. Finally, cells are washed twice, resuspended in 300 μl of BD stain buffer and analyzed in a FACSCALIBUR flow cytometer. As a positive control, 1×10^5 MALME3M cells are incubated with 20 nM heregulin EGF for 10 minutes on ice, washed twice and incubated with a 1:200 dilution of streptavidin-PE for 45 minutes. In order to assess background staining from the streptavidin-PE conjugate, 1×10^5 MALME3M cells are incubated with 100 μl of a 1:200 dilution of streptavidin-PE only for 45 minutes.

[7] = target: ErbB3 (Homo sapiens, UniProt P21860); assay: paratope mapping: binding of Ab #6 scFv mutants to ErbB3; conditions: scFv format; compared with binding to Protein A
Experimental: FIG. 36 presents data from paratope mapping experiments.
This format is used to investigate the effect on ErbB3 binding of alanine (and in some cases phenylalanine) substitution mutations in the CDR loops.
All of the mutations are made using standard recombinant DNA techniques and binding of the mutants to ErbB3 is tested using standard screening techniques known in the art.

Molecule: CS(=O)(=O)CCNCc1ccc(-c2ccc3ncnc(Nc4ccc(OCc5cccc(F)c5)c(Cl)c4)c3c2)o1 [Lapatinib]
- IC50 ([1]; 25 nM BTC, read-out: IC50, BTC-induced ErbB3 phosphorylation): 360 nM
- IC50 ([1]; 25 nM HRG, read-out: IC50, HRG-induced ErbB3 phosphorylation): 150 nM

Molecule: C#Cc1cccc(Nc2ncnc3cc(OCCOC)c(OCCOC)cc23)c1 [erlotinib, reference compound]
- inhibition of tumor growth (tumor volume) [2]: inhibit tumor growth
- tumor growth inhibition [3]: insensitive

Molecule: N.N.[Cl][Pt][Cl] [cisplatin]
- tumor growth inhibition [4]: able to inhibit the growth of the SKOV3 xenografts

Molecule: Pertuzumab
- IC50, BTC-induced ErbB3 phosphorylation ([1]; 25 nM BTC, 10 minutes): did not inhibit

Molecule: CC(=O)O[C@H]1C(=O)[C@@]2(C)[C@H]([C@H](OC(=O)c3ccccc3)[C@]3(O)C[C@H](OC(=O)[C@H](O)[C@@H](NC(=O)c4ccccc4)c4ccccc4)C(C)=C1C3(C)C)[C@]1(OC(C)=O)CO[C@@H]1C[C@@H]2O [taxol, reference compound]
- inhibition of tumor growth (tumor volume) [5]: inhibited tumor growth
- tumor growth inhibition [3]: insensitive

B1: Ab/Fab #3: a Fab version of Ab #3 (antibody, V domains shown)
VH: EVQLLESGGGLVQPGGSLRLSCAASGFTFSAYNMRWVRQAPGKGLEWVSVIYPSGGATRYADSVKGRFTISRDNSKNTLYLQMNSLRAEDTAVYYCARGYYYYGMDVWGQGTLVTVSS
VL: QSVLTQPPSASGTPGQRVTISCSGSDSNIGRNYIYWYQQFPGTAPKLLIYRNNQRPSGVPDRISGSKSGTSASLAISGLRSEDEAEYHCGTWDDSLSGPVFGGGTKLTVL
- inhibition of heregulin binding to ErbB3 [6]: able to inhibit heregulin binding to ErbB3

B2: M1: Ab #6 scFv mutant, H1 loop, Thr28Ala (antibody, chains of the INN, looked up, variant H:T28A, V domains shown)
VH: EVQLLESGGGLVQPGGSLRLSCAASGFAFSHYVMAWVRQAPGKGLEWVSSISSSGGWTLYADSVKGRFTISRDNSKNTLYLQMNSLRAEDTAVYYCTRGLKMATIFDYWGQGTLVTVSS
VL: QSALTQPASVSGSPGQSITISCTGTSSDVGSYNVVSWYQQHPGKAPKLIIYEVSQRPSGVSNRFSGSKSGNTASLTISGLQTEDEADYYCCSYAGSSIFVIFGGGTKVTVL
modifications: scFv
- Effect on ErbB3 Binding of Ab #6 Mutations [7]: no effect on binding

B3: M4: Ab #6 scFv mutant, CDR H1, Tyr32Ala (antibody, chains of the INN, looked up, variant H:Y32A, V domains shown)
VH: B2 VH with A28T, Y32A
VL: B2 VL
modifications: scFv
- Effect on ErbB3 Binding of Ab #6 Mutations [7]: large decrease in binding (based on the three groupings shown in FIG. 36)

B4: M3: Ab #6 scFv mutant, CDR H1, His31Ala (antibody, chains of the INN, looked up, variant H:H31A, V domains shown)
VH: B2 VH with A28T, H31A
VL: B2 VL
modifications: scFv
- Effect on ErbB3 Binding of Ab #6 Mutations [7]: no effect on binding

B5: M5: Ab #6 scFv mutant, CDR H1, Tyr32Phe (antibody, chains of the INN, looked up, variant H:Y32F, V domains shown)
VH: B2 VH with A28T, Y32F
VL: B2 VL
modifications: scFv
- Effect on ErbB3 Binding of Ab #6 Mutations [7]: no effect on binding
